Test results as given in US20250281424A1 (New York Blood Center, Inc, priority 2020, published 2025).
pIC50: −log10 of the molar value.

Molecular target: T1, human PF4 (Homo sapiens, UniProt P02776)
T1 construct: PF4 is a 70 amino acid, lysine-rich 7.8 kDa platelet-specific protein; made in house; host or cells: Escherichia coli BL21DE3 pLysS (pT7-7) and/or Drosophila S2 cells
T1 sequence (P02776 32-101): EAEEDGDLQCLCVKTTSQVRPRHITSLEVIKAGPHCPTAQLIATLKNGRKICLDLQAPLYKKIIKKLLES
Test: Inhibition of PF4 tetramer formation (BS3 cross-linking, SDS-PAGE)
Format: biochemical
Settings: for inhibition at 1 µM: 1 μM inhibitor; for inhibition at 1 µM / inhibition at 3 µM / inhibition at 5 µM / inhibition at 10 µM: read-out: % inhibition of PF4 tetramer formation at single concentration of inhibitor; for inhibition at 3 µM: 3 μM inhibitor (column A); for pIC50: read-out: IC50 of PF4 tetramer formation inhibition; for inhibition at 5 µM: 5 μM inhibitor; for inhibition at 10 µM: 10 μM inhibitor (column A)
Procedure, shortened: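 Recombinant human wild-type PF4 (E. coli-expressed, heparin-purified), 10 μg/ml in PBS, incubated with compound 15 min at 37° C or 60 min at room temperature, then cross-linked with 0.2 mM BS3 for 30 min at room temperature. Reducing 12% SDS-PAGE; bands quantified as % tetramer, trimer, dimer, monomer versus compound-free control.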

Row | Compound | inhibition at 1 µM [%] | inhibition at 3 µM [%] | pIC50 | inhibition at 5 µM [%] | inhibition at 10 µM [%]
1 | CC(=O)OC[C@H]1O[C@@H](OC(C)=O)[C@H](NC(=O)C2C(=O)c3ccc(Oc4ccc5c(c4)C(=O)C(C(=O)N[C@H]4[C@H](OC(C)=O)O[C@H](COC(C)=O)[C@@H](OC(C)=O)[C@@H]4OC(C)=O)C5=O)cc3C2=O)[C@@H](OC(C)=O)[C@@H]1OC(C)=O (stereo partly drawn) [Example 399, [(2R,3S,4R,5R,6S)-3,4,6-tris(acetyloxy)-5-{5-[(1,3-dioxo-2-{[(2S,3R,4R,5S,6R)-2,4,5-tris(acetyloxy)-6-[(acetyloxy)methyl]oxan-3-yl]carbamoyl}-2,3-dihydro-1H-inden-5-yl)oxy]-1,3-dioxo-2,3-dihydro-1H-indene-2-amido}oxan-2-yl]methyl acetate] | 21 | 28 | – | – | –
2 | O=C(Nc1ccccc1)C1C(=O)c2ccc(S(=O)(=O)c3ccc4c(c3)C(=O)C(C(=O)Nc3ccccc3)C4=O)cc2C1=O (centres unmarked) [Example 37, 5,5′-sulphonylbis(1,3-dioxo-indan-2-carboxylic acid (phenyl)-amide)] | – | – | ~6.00 | – | –
3 | CCCCc1ccc(NC(=O)C2C(=O)c3ccc(S(=O)(=O)c4ccc5c(c4)C(=O)C(C(=O)Nc4ccc(CCCC)cc4)C5=O)cc3C2=O)cc1 (centres unmarked) [Example 102] | – | – | 5.54 | 78 | 100
4 | O=C(c1ccc2c(c1)C(=O)C(C(=O)C1CCCCC1)C2=O)c1ccc2c(c1)C(=O)C(C(=O)C1CCCCC1)C2=O (centres unmarked) [Example 287, 2-cyclohexanecarbonyl-5-(2-cyclohexanecarbonyl-1,3-dioxo-2,3-dihydro-1H-indene-5-carbonyl)-2,3-dihydro-1H-indene-1,3-dione] | 5 | 31 | 5.52 | – | –
5 | O=C(O)CCC(=O)C1C(=O)c2ccc(Oc3ccc4c(c3)C(=O)C(C(=O)CCC(=O)O)C4=O)cc2C1=O (centres unmarked) [Example 245, 4-(5-{[2-(3-carboxypropanoyl)-1,3-dioxo-2,3-dihydro-1H-inden-5-yl]oxy}-1,3-dioxo-2,3-dihydro-1H-inden-2-yl)-4-oxobutanoic acid] | 27 | 47 | – | – | –
6 | CC(=O)C1(C(=O)OC(C)C)C(=O)c2ccc(Oc3ccc4c(c3)C(=O)CC4=O)cc2C1=O (centres unmarked) [Example 8, ethyl 2-acetyl-5-(1,3-dioxo-indan-5-yloxy)-1,3-dioxo-indan-2-carboxylic acid isopropyl ester] | – | – | 5.47 | – | –
7 | O=C(CC1CCCCC1)C1C(=O)c2ccc(S(=O)(=O)c3ccc4c(c3)C(=O)C(C(=O)CC3CCCCC3)C4=O)cc2C1=O (centres unmarked) [Example 148, 2-(2-cyclohexylacetyl)-5-{[2-(2-cyclohexylacetyl)-1,3-dioxo-2,3-dihydro-1H-inden-5-yl]sulfonyl}-2,3-dihydro-1H-indene-1,3-dione] | – | – | – | 59 | 90
8 | CSCC[C@H](NC(=O)OC(C)(C)C)C(=O)C1C(=O)c2ccc(Oc3ccc4c(c3)C(=O)C(C(=O)[C@H](CCSC)NC(=O)OC(C)(C)C)C4=O)cc2C1=O (stereo partly drawn) [Example 270, tert-butyl N-[(2S)-1-[5-({2-[(2S)-2-{[(tert-butoxy)carbonyl]amino}-4-(methylsulfanyl)butanoyl]-1,3-dioxo-2,3-dihydro-1H-inden-5-yl}oxy)-1,3-dioxo-2,3-dihydro-1H-inden-2-yl]-4-(methylsulfanyl)-1-oxobutan-2-yl]carbamate] | 10 | 24 | – | – | –
9 | CSCC[C@H](NC(=O)OC(C)(C)C)C(=O)C1C(=O)c2ccc(C(=O)c3ccc4c(c3)C(=O)C(C(=O)[C@H](CCSC)NC(=O)OC(C)(C)C)C4=O)cc2C1=O (stereo partly drawn) [Example 271, tert-butyl N-[(2S)-1-(5-{2-[(2S)-2-{[(tert-butoxy)carbonyl]amino}-4-(methylsulfanyl)butanoyl]-1,3-dioxo-2,3-dihydro-1H-indene-5-carbonyl}-1,3-dioxo-2,3-dihydro-1H-inden-2-yl)-4-(methylsulfanyl)-1-oxobutan-2-yl]carbamate] | 21 | 38 | – | – | –
10 | O=C1c2ccc(Oc3ccc4c(c3)C(=O)C(C(=O)C3CCCS3(=O)=O)C4=O)cc2C(=O)C1C(=O)C1CCCS1(=O)=O (centres unmarked) [Example 370, 2-(5-{[2-(1,1-dioxo-1λ^6-thiolane-2-carbonyl)-1,3-dioxo-2,3-dihydro-1H-inden-5-yl]oxy}-1,3-dioxo-2,3-dihydro-1H-indene-2-carbonyl)-1λ^6-thiolane-1,1-dione] | 3 | 6 | – | – | –
11 | COCCNC(=O)C1C(=O)c2ccc(S(=O)(=O)c3ccc4c(c3)C(=O)C(C(=O)NCCOC)C4=O)cc2C1=O (centres unmarked) [Example 73, 5,5′-sulfonylbis(n-(2-methoxyethyl)-1,3-dioxo-2,3-dihydro-1h-indene-2-carboxamide)] | – | – | – | 0 | 0
12 | CC(C)(C)OC(=O)N1CCC[C@@H]1C(=O)C1C(=O)c2ccc(C(=O)c3ccc4c(c3)C(=O)C(C(=O)[C@H]3CCCN3C(=O)OC(C)(C)C)C4=O)cc2C1=O (some centres unmarked) [Example 161] | – | – | 6.00 | 87 | 93
13 | O=C(c1ccc2c(c1)C(=O)C(C(=O)Nc1ccc(Cl)cc1)C2=O)c1ccc2c(c1)C(=O)C(C(=O)Nc1ccc(Cl)cc1)C2=O (centres unmarked) [Example 78, N-(4-chlorophenyl)-5-{2-[(4-chlorophenyl)carbamoyl]-1,3-dioxo-2,3-dihydro-1H-indene-5-carbonyl}-1,3-dioxo-2,3-dihydro-1H-indene-2-carboxamide] | – | – | 5.85 | – | –
14 | CC(C)(C)OC(=O)N1CCOC(C(=O)C2C(=O)c3ccc(C(=O)c4ccc5c(c4)C(=O)C(C(=O)C4CN(C(=O)OC(C)(C)C)CCO4)C5=O)cc3C2=O)C1 (centres unmarked) [Example 240, tert-butyl 2-[5-(2-{4-[(tert-butoxy)carbonyl]morpholine-2-carbonyl}-1,3-dioxo-2,3-dihydro-1H-indene-5-carbonyl)-1,3-dioxo-2,3-dihydro-1H-indene-2-carbonyl]morpholine-4-carboxylate] | 14 | 32 | – | – | –
15 | O=C(CSc1ccncc1)C1C(=O)c2ccc(S(=O)(=O)c3ccc4c(c3)C(=O)C(C(=O)CSc3ccncc3)C4=O)cc2C1=O (centres unmarked) [Example 290, 5-({1,3-dioxo-2-[2-(pyridin-4-ylsulfanyl)acetyl]-2,3-dihydro-1H-inden-5-yl}sulfonyl)-2-[2-(pyridin-4-ylsulfanyl)acetyl]-2,3-dihydro-1H-indene-1,3-dione] | 39 | 51 | – | – | –
16 | CO[C@@H](C(=O)C1C(=O)c2ccc(C(=O)c3ccc4c(c3)C(=O)C(C(=O)[C@H](OC)c3ccccc3)C4=O)cc2C1=O)c1ccccc1 (stereo partly drawn) [Example 119, 2-[(2R)-2-methoxy-2-phenylacetyl]-5-{2-[(2R)-2-methoxy-2-phenylacetyl]-1,3-dioxo-2,3-dihydro-1H-indene-5-carbonyl}-2,3-dihydro-1H-indene-1,3-dione] | – | – | 5.40 | 83 | 90
17 | COc1ccccc1NC(=O)C1C(=O)c2ccc(S(=O)(=O)c3ccc4c(c3)C(=O)C(C(=O)Nc3ccccc3OC)C4=O)cc2C1=O (centres unmarked) [Example 69, 5,5′-sulfonylbis(n-(2-methoxyphenyl)-1,3-dioxo-2,3-dihydro-1h-indene-2-carboxamide)] | – | – | 5.98 | 60 | 85
18 | O=C(c1ccc2c(c1)C(=O)C(C(=O)C1CC1)C2=O)c1ccc2c(c1)C(=O)C(C(=O)C1CC1)C2=O (centres unmarked) [Example 401] | 22 | 23 | – | – | –
19 | O=C(Nc1cccc(Cl)c1)C1C(=O)c2ccc(S(=O)(=O)c3ccc4c(c3)C(=O)C(C(=O)Nc3cccc(Cl)c3)C4=O)cc2C1=O (centres unmarked) [Example 86, N-(3-chlorophenyl)-5-({2-[(3-chlorophenyl)carbamoyl]-1,3-dioxo-2,3-dihydro-1H-inden-5-yl}sulfonyl)-1,3-dioxo-2,3-dihydro-1H-indene-2-carboxamide] | – | – | – | 73 | 90
20 | CC(C)OCC(=O)C1C(=O)c2ccc(Oc3ccc4c(c3)C(=O)C(C(=O)COC(C)C)C4=O)cc2C1=O (centres unmarked) [Example 378, 5-({1,3-dioxo-2-[2-(propan-2-yloxy)acetyl]-2,3-dihydro-1H-inden-5-yl}oxy)-2-[2-(propan-2-yloxy)acetyl]-2,3-dihydro-1H-indene-1,3-dione] | 39 | 69 | – | – | –
21 | O=C(NC1CCC1)C1C(=O)c2ccc(Oc3ccc4c(c3)C(=O)C(C(=O)NC3CCC3)C4=O)cc2C1=O (centres unmarked) [Example 389, N-cyclobutyl-5-{[2-(cyclobutylcarbamoyl)-1,3-dioxo-2,3-dihydro-1H-inden-5-yl]oxy}-1,3-dioxo-2,3-dihydro-1H-indene-2-carboxamide] | 31 | 80 | – | – | –
22 | CSCCC(=O)C1C(=O)c2ccc(Oc3ccc4c(c3)C(=O)C(C(=O)CCSC)C4=O)cc2C1=O (centres unmarked) [Example 276, 2-[3-(methylsulfanyl)propanoyl]-5-({2-[3-(methylsulfanyl)propanoyl]-1,3-dioxo-2,3-dihydro-1H-inden-5-yl}oxy)-2,3-dihydro-1H-indene-1,3-dione] | 12 | 7 | 5.52 | – | –
23 | CC(C)(C)OC(=O)NCCC(=O)C1C(=O)c2ccc(C(=O)c3ccc4c(c3)C(=O)C(C(=O)CCNC(=O)OC(C)(C)C)C4=O)cc2C1=O (centres unmarked) [Example 163, tert-butyl N-(3-{5-[2-(3-{[(tert-butoxy)carbonyl]amino}propanoyl)-1,3-dioxo-2,3-dihydro-1H-indene-5-carbonyl]-1,3-dioxo-2,3-dihydro-1H-inden-2-yl}-3-oxopropyl)carbamate] | – | – | 4.89 | 87 | 93
